Assay results reported in US10167262B2, “Herbicidal substituted 3-arylpyrazoles” (FMC CORPORATION, priority 2014, dated 2019).

Assays:
Assay type in all cases: in vivo
[1] = test system: blackgrass (Alopecurus myosuroides); experiment: Test C pre-/postemergence greenhouse test, plant response rating 0-100; details: Postemergence; for Plant response rating, Blackgrass: scale 0 to 100
Summary of the method: (§1)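 Seeds were sown in a loam soil–sand blend and sprayed preemergence with test chemicals in a non-phytotoxic solvent mixture containing surfactant; postemergence plants in peat/vermiculite medium were treated at 2–18 cm (1- to 4-leaf stage). After 13 to 15 days in the greenhouse, injury was rated visually against untreated controls.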

corn (Zea mays) = experiment: as above; details: Postemergence; for Plant response rating, Corn: scale 0 to 100
Summary of the method: as §1

[2] = test system: giant foxtail (Setaria faberii); experiment: as above; details: Postemergence; for Plant response rating, Foxtail, Giant: scale 0 to 100
Summary of the method: as §1

[3] = test system: johnsongrass (Sorghum halepense); experiment: as above; details: Postemergence; for Plant response rating, Johnsongrass: scale 0 to 100
Summary of the method: as §1

[4] = test system: lambsquarters (Chenopodium album); experiment: as above; details: Postemergence; for Plant response rating, Lambsquarters: scale 0 to 100
Summary of the method: as §1

[5] = test system: morningglory (Ipomoea coccinea); experiment: as above; details: Postemergence; for Plant response rating, Morningglory: scale 0 to 100
Summary of the method: as §1

[6] = test system: pigweed (Amaranthus retroflexus); experiment: as above; details: Postemergence; for Plant response rating, Pigweed: scale 0 to 100
Summary of the method: as §1

soybean (Glycine max) = experiment: as above; details: Postemergence; for Plant response rating, Soybean: scale 0 to 100
Summary of the method: as §1

[7] = test system: velvetleaf (Abutilon theophrasti); experiment: as above; details: Postemergence; for Plant response rating, Velvetleaf: scale 0 to 100
Summary of the method: as §1

[8] = test system: winter wheat (Triticum aestivum); experiment: as above; details: Postemergence; for Plant response rating, Wheat: scale 0 to 100
Summary of the method: as §1

[9] = test system: chickweed (common chickweed, Stellaria media); experiment: Test C postemergence greenhouse test, plant response rating 0-100; details: for Plant response rating, Chickweed: scale 0 to 100
Summary of the method: (§2)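 Postemergence spray of formulated test chemicals on plants 2 to 18 cm tall (1- to 4-leaf stage) grown in peat/vermiculite medium. Greenhouse hold 13 to 15 days, then visual comparison with untreated controls on a 0-100 scale (0 no effect, 100 complete control); dash means no test result.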

kochia (Kochia scoparia) = experiment: as above; details: for Plant response rating, Kochia: scale 0 to 100
Summary of the method: as §2

wild oat (Avena fatua) = experiment: as above; details: for Plant response rating, Oat, Wild: scale 0 to 100
Summary of the method: as §2

Fc1ccc(NN=C(c2ccccc2)c2c[nH]nc2-c2cc(Cl)cc(Cl)c2)cc1 [Compound 35]
100: Plant response rating, Lambsquarters ([4]; 250 g ai/ha) | Plant response rating, Lambsquarters ([4]; 500 g ai/ha) | Plant response rating (0 to 100), Pigweed ([6]; 125 g ai/ha) | Plant response rating, Pigweed ([6]; 250 g ai/ha) | Plant response rating, Pigweed ([6]; 500 g ai/ha) | Plant response rating (0 to 100), Chickweed ([9]; 125 g ai/ha) | Plant response rating, Chickweed ([9]; 250 g ai/ha) | Plant response rating, Chickweed ([9]; 500 g ai/ha)
60: Plant response rating (0 to 100), Velvetleaf ([7]; 62 g ai/ha)
65: Plant response rating (0 to 100), Velvetleaf ([7]; 125 g ai/ha)
98: Plant response rating (0 to 100), Lambsquarters ([4]; 62 g ai/ha) | Plant response rating (0 to 100), Lambsquarters ([4]; 125 g ai/ha) | Plant response rating (0 to 100), Chickweed ([9]; 62 g ai/ha)
10: Plant response rating (0 to 100), Soybean (soybean (Glycine max); 62 g ai/ha) | Plant response rating (0 to 100), Soybean (soybean (Glycine max); 125 g ai/ha) | Plant response rating, Soybean (soybean (Glycine max); 250 g ai/ha) | Plant response rating, Soybean (soybean (Glycine max); 500 g ai/ha)
5: Plant response rating, Corn (corn (Zea mays); 250 g ai/ha) | Plant response rating, Corn (corn (Zea mays); 500 g ai/ha) | Plant response rating, Foxtail, Giant ([2]; 500 g ai/ha) | Plant response rating, Morningglory ([5]; 250 g ai/ha) | Plant response rating, Morningglory ([5]; 500 g ai/ha)
0: Plant response rating (0 to 100), Blackgrass ([1]; 62 g ai/ha) | Plant response rating (0 to 100), Blackgrass ([1]; 125 g ai/ha) | Plant response rating, Blackgrass ([1]; 250 g ai/ha) | Plant response rating, Blackgrass ([1]; 500 g ai/ha) | Plant response rating (0 to 100), Corn (corn (Zea mays); 62 g ai/ha) | Plant response rating (0 to 100), Corn (corn (Zea mays); 125 g ai/ha) | Plant response rating (0 to 100), Foxtail, Giant ([2]; 62 g ai/ha) | Plant response rating (0 to 100), Foxtail, Giant ([2]; 125 g ai/ha) | Plant response rating, Foxtail, Giant ([2]; 250 g ai/ha) | Plant response rating (0 to 100), Johnsongrass ([3]; 62 g ai/ha) | Plant response rating (0 to 100), Johnsongrass ([3]; 125 g ai/ha) | Plant response rating, Johnsongrass ([3]; 250 g ai/ha) | Plant response rating, Johnsongrass ([3]; 500 g ai/ha) | Plant response rating (0 to 100), Morningglory ([5]; 62 g ai/ha) | Plant response rating (0 to 100), Morningglory ([5]; 125 g ai/ha) | Plant response rating (0 to 100), Wheat ([8]; 62 g ai/ha) | Plant response rating (0 to 100), Wheat ([8]; 125 g ai/ha) | Plant response rating, Wheat ([8]; 250 g ai/ha) | Plant response rating, Wheat ([8]; 500 g ai/ha) | Plant response rating (0 to 100), Oat, Wild (wild oat (Avena fatua); 62 g ai/ha) | Plant response rating (0 to 100), Oat, Wild (wild oat (Avena fatua); 125 g ai/ha) | Plant response rating, Oat, Wild (wild oat (Avena fatua); 250 g ai/ha) | Plant response rating, Oat, Wild (wild oat (Avena fatua); 500 g ai/ha)
55: Plant response rating (0 to 100), Kochia (kochia (Kochia scoparia); 125 g ai/ha)
95: Plant response rating, Kochia (kochia (Kochia scoparia); 500 g ai/ha)
70: Plant response rating, Velvetleaf ([7]; 250 g ai/ha) | Plant response rating, Velvetleaf ([7]; 500 g ai/ha)
90: Plant response rating, Kochia (kochia (Kochia scoparia); 250 g ai/ha)
50: Plant response rating (0 to 100), Kochia (kochia (Kochia scoparia); 62 g ai/ha)
85: Plant response rating (0 to 100), Pigweed ([6]; 62 g ai/ha)

CCn1cc(C(=NN2CCCC2)c2ccccc2)c(-c2cc(Cl)cc(Cl)c2)n1 [Compound 37]
45: Plant response rating (0 to 100), Lambsquarters ([4]; 62 g ai/ha)
75: Plant response rating (0 to 100), Pigweed ([6]; 62 g ai/ha) | Plant response rating (0 to 100), Velvetleaf ([7]; 62 g ai/ha) | Plant response rating, Chickweed ([9]; 250 g ai/ha)
65: Plant response rating, Lambsquarters ([4]; 250 g ai/ha)
0: Plant response rating (0 to 100), Blackgrass ([1]; 31 g ai/ha) | Plant response rating (0 to 100), Blackgrass ([1]; 62 g ai/ha) | Plant response rating (0 to 100), Blackgrass ([1]; 125 g ai/ha) | Plant response rating, Blackgrass ([1]; 250 g ai/ha) | Plant response rating (0 to 100), Corn (corn (Zea mays); 31 g ai/ha) | Plant response rating (0 to 100), Corn (corn (Zea mays); 62 g ai/ha) | Plant response rating (0 to 100), Foxtail, Giant ([2]; 31 g ai/ha) | Plant response rating (0 to 100), Foxtail, Giant ([2]; 62 g ai/ha) | Plant response rating (0 to 100), Johnsongrass ([3]; 62 g ai/ha) | Plant response rating (0 to 100), Johnsongrass ([3]; 125 g ai/ha) | Plant response rating, Johnsongrass ([3]; 250 g ai/ha) | Plant response rating (0 to 100), Morningglory ([5]; 62 g ai/ha) | Plant response rating (0 to 100), Morningglory ([5]; 125 g ai/ha) | Plant response rating, Morningglory ([5]; 250 g ai/ha) | Plant response rating (0 to 100), Wheat ([8]; 62 g ai/ha) | Plant response rating (0 to 100), Wheat ([8]; 125 g ai/ha) | Plant response rating, Wheat ([8]; 250 g ai/ha) | Plant response rating (0 to 100), Oat, Wild (wild oat (Avena fatua); 62 g ai/ha) | Plant response rating (0 to 100), Oat, Wild (wild oat (Avena fatua); 125 g ai/ha) | Plant response rating, Oat, Wild (wild oat (Avena fatua); 250 g ai/ha)
80: Plant response rating (0 to 100), Pigweed ([6]; 125 g ai/ha) | Plant response rating (0 to 100), Velvetleaf ([7]; 125 g ai/ha)
70: Plant response rating (0 to 100), Chickweed ([9]; 31 g ai/ha) | Plant response rating (0 to 100), Chickweed ([9]; 125 g ai/ha)
35: Plant response rating, Kochia (kochia (Kochia scoparia); 250 g ai/ha)
25: Plant response rating (0 to 100), Foxtail, Giant ([2]; 125 g ai/ha) | Plant response rating, Foxtail, Giant ([2]; 250 g ai/ha)
15: Plant response rating (0 to 100), Kochia (kochia (Kochia scoparia); 62 g ai/ha) | Plant response rating (0 to 100), Kochia (kochia (Kochia scoparia); 125 g ai/ha)
55: Plant response rating (0 to 100), Lambsquarters ([4]; 125 g ai/ha)
100: Plant response rating, Pigweed ([6]; 250 g ai/ha)
98: Plant response rating, Velvetleaf ([7]; 250 g ai/ha)
5: Plant response rating (0 to 100), Corn (corn (Zea mays); 125 g ai/ha) | Plant response rating, Corn (corn (Zea mays); 250 g ai/ha) | Plant response rating (0 to 100), Soybean (soybean (Glycine max); 62 g ai/ha) | Plant response rating (0 to 100), Soybean (soybean (Glycine max); 125 g ai/ha) | Plant response rating, Soybean (soybean (Glycine max); 250 g ai/ha)
